Read-outs that look alike come from different tables or passages of the source. Blank lines part the entries; values can stand above or below the compound they belong to.
What was measured:
[1] = tested on: primary human mesenchymal stem cells (MSCs); assay: Osteoinductive (OI) alkaline phosphatase (ALP) assay, dose response, ALP normalised to DNA; type: cell-based
From the text: (§1) Samples from several classes of small molecule compounds including, corticosteroids, glucocorticoids, oxysterols, compounds that impact the HMG coA reductase pathway and compounds that upregulate intracellular cAMP were screened for osteoinductive potential with an alkaline phosphatase (ALP) assay in primary human mesenchymal stem cells (MSCs). Sample compounds were screened over a dose range in a multiwell plate format using DNA to normalize the ALP response as a function of cell number. These dose response curves allowed for the determination of an EC50 to measure relative potency of the osteogenic response between compounds. FIG. 1 is a representative dose response curve for two of the corticosteroid compounds tested, clobetasol propionate and dexamethasone. In addition to the functional analysis, certain identified compounds were run through an in vitro L929 cytotoxicity assay to determine a CC50.

15 mm radial defect = assay: In vivo study in rabbit radial defect model, radiographs; conditions: Scaffold I coated intraoperatively plus autogenic bone marrow, three weeks post op
Protocol: An evaluation of two small molecule compounds, dexamethasone and 20S-hydroxycholesterol, was performed in the rabbit radial defect model. Scaffold I was coated with the compounds intraoperatively, combined with autogenic bone marrow, and implanted in a 15 mm radial defect. Radiographs were taken at 3 and 6 weeks post-operatively, after which the animals were sacrificed and explants analyzed by micro CT.

L929 = assay: In vitro L929 cytotoxicity assay (CTG); type: cell-based; conditions: L929 cells; read-out: Cytotox (CTG) CC50
From the text: as §1

[2] = In vitro L929 cytotoxicity assay (CTG); type: cell-based; conditions: mouse, L929 cells; read-out: Cytotox (CTG) CC50
From the text: as §1

MSCs [3] = assay: In vitro 3-D efficacy: ALP RNA expression in MSCs seeded on coated Scaffold I; type: cell-based; conditions: compound precoated on Scaffold I, MSCs cultured three days, versus basal conditions
Protocol: The osteoinductive potential of selected small molecule compounds were determined in vitro by seeding MSCs onto a three dimensional b-TCP polymer composite scaffold, Scaffold I, which had been coated with selected compounds prior to seeding. These cells were allowed to culture for a period of time after which they were assayed for alkaline phosphatase (ALP) RNA content, an early marker of osteogenic differentiation. FIG. 7 is a graphical illustration showing the amount of ALP RNA expression in the MSCs, expressed as a fold increase over basal conditions (standard culture conditions). In this example, dexamethasone (a control for the assay) was added to the culture media in solution whereas in all other cases the compounds were precoated on to Scaffold I followed by addition of the MSCs. The cells were then cultured for three days and assayed for their level of osteogenic response via ALP RNA expression.

MSCs [4] = assay: Relative potency: ALP assay after short exposure times, then basal media to assay completion; type: cell-based, human; conditions: for EC50: MSCs, then basal media; for Max Osteogenic Response: time range to reach the full response of the ALP assay control (dexamethasone at 10 nM for 6 days)
Protocol: One part of this technology may involve coating an osteoconductive scaffold with an osteoinductive small molecule compound to thereby deliver the compound locally when the scaffold is implanted. Consequently, the optimal time and concentration profile required for the compound to remain at the site in order to influence an osteogenic outcome was determined. Initially, potency was determined by looking at exposure over 6 days. In order to better understand the optimal exposure profile, MSCs were treated over a series of dose ranges for exposure times starting at 1 hour out to 4 days, after which the compound treated media was removed and the cells were allowed to continue to assay completion under basal media conditions. This allowed for the determination of the relative potency of the compounds over short exposure periods and gave an indication of the release requirements that would be necessary to achieve the desired osteogenic outcome.
FIG. 2 is a representative relative potency graph of a corticosteroid, fluticasone propionate, based on the results shown in Table 2.

[5] = Excipient testing at variable pH levels: solubility; type: physicochemical
Protocol: The goal of these experiments was to increase the solubility of the compound such that increased doses could be added to material scaffolds. In a set of experiments, the solubility of clobetasol propionate and fluticasone propionate were evaluated at three distinct pH levels with a series of excipients. Phosphate buffered solutions were prepared at pH levels 3 (Low), and 7 (Medium), and a Tris buffered solution was prepared at pH level 9 (High). Solubility of the compound in the presence of a given excipient was measured at the individual pH levels as a fold increase over the solubility of the compound with no excipient present. Data regarding the solubility of clobetasol propionate in combination with the excipients is given below in Table 3. Data regarding the solubility of fluticasone propionate in combination with the excipients is given below in Table 4.

[6] = primary human MSCs, exposure over 6 days, read-out: OI Assay (ALP) EC50
[7] = Homo sapiens, Mesenchymal stem cells, 144 h, MSCs, 6 days exposure, read-out: EC50 6 days
[8] = Homo sapiens, Mesenchymal stem cells, 144 h, primary human MSCs, exposure over 6 days, read-out: OI Assay (ALP) EC50
[9] = Homo sapiens, 1 hr exposure, read-out: EC50 1 hr.
[10] = Homo sapiens, 4 hr exposure, read-out: EC50 4 hr.
[11] = Homo sapiens, 24 hr exposure, read-out: EC50 24 hr.
[12] = Homo sapiens, 72 hr exposure, read-out: EC50 72 hr

SMILES: CC(C)CCC[C@](C)(O)[C@H]1CC[C@H]2[C@@H]3CC=C4C[C@@H](O)CC[C@]4(C)[C@H]3CC[C@@]21C [20a-hydroxy-cholesterol]
EC50 [1, 6]: > 12000 nM | radiographs, periosteal response (15 mm radial defect): appeared to have an enhanced periosteal response | CC50 (L929): > 12000 nM

SMILES: C=C(CC[C@]12O[C@H](C(=O)O)[C@@](O)(C(=O)O)[C@](C(=O)O)(O1)[C@H](OC(=O)/C=C/[C@@H](C)C[C@@H](C)CC)[C@H]2O)[C@@H](OC(C)=O)[C@H](C)Cc1ccccc1 [Zaragozic Acid A]
EC50 [1, 6]: 715 nM | CC50 (L929): > 30000 nM

SMILES: CC1(C)O[C@@H]2C[C@H]3[C@@H]4CCC5=CC(=O)CC[C@]5(C)[C@@]4(F)[C@@H](O)C[C@]3(C)[C@]2(C(=O)CCl)O1 [Halcinonide]
EC50 [1, 7]: 0.235 nM | EC50 [1, 8]: 0.235 nM | CC50 [2]: > 10000 nM | ALP RNA expression (osteogenic differentiation of MSCs) (MSCs [3]): upregulated osteogenic differentiation of MSCs significantly | EC50 (MSCs [4]; [9]): 2.29 nM | EC50 (MSCs [4]; [11]): 1.26 nM | EC50 (MSCs [4]; [12]): 0.115 nM | Max Osteogenic Response (MSCs [4]): 72 h

Now from value to compound, other results behind:

EC50 (MSCs [4]; [9]): 0.0605 nM | EC50 (MSCs [4]; [10]): 0.019 nM | EC50 (MSCs [4]; [11]): 0.0804 nM | EC50 (MSCs [4]; [12]): 0.00371 nM
SMILES: CCC(=O)O[C@]1(C(=O)CCl)[C@@H](C)C[C@H]2[C@@H]3CCC4=CC(=O)C=C[C@]4(C)[C@@]3(F)[C@@H](O)C[C@@]21C [Clobetasol propionate]
EC50 [1, 7]: 0.012 nM | EC50 [1, 8]: 0.012 nM | CC50 [2]: > 30000 nM | ALP RNA expression (osteogenic differentiation of MSCs) (MSCs [3]): upregulated osteogenic differentiation of MSCs significantly | Max Osteogenic Response (MSCs [4]): 72 h

EC50 (MSCs [4]; [10]): 0.787 nM | EC50 (MSCs [4]; [12]): 0.277 nM
SMILES: C[C@@H]1C[C@H]2[C@@H]3CCC4=CC(=O)C=C[C@]4(C)[C@@]3(F)[C@@H](O)C[C@]2(C)[C@@]1(O)C(=O)CO [Dexamethasone]
EC50 [1, 7]: 0.95 nM | EC50 [1, 8]: 0.95 nM | CC50 [2]: > 50000 nM

EC50 (MSCs [4]; [9]): 47.9 nM | EC50 (MSCs [4]; [10]): 5.47 nM | EC50 (MSCs [4]; [11]): 4.48 nM | EC50 (MSCs [4]; [12]): 0.0533 nM
SMILES: CCCC1O[C@@H]2C[C@H]3[C@@H]4CCC5=CC(=O)C=C[C@]5(C)[C@H]4[C@@H](O)C[C@]3(C)[C@]2(C(=O)CO)O1 (some centres unmarked) [Budesonide]
EC50 [1, 7]: 0.296 nM | EC50 [1, 8]: 0.296 nM | CC50 [2]: > 30000 nM | Max Osteogenic Response (MSCs [4]): 72 h

solubility, fold increase over no excipient ([5]; excipient Captisol, pH 3 (Low), phosphate buffered): 55.01 fold | solubility, fold increase over no excipient ([5]; excipient Captisol, pH 7 (Med), phosphate buffered): 80.81 fold | solubility, fold increase over no excipient ([5]; excipient Captisol, pH 9 (High), Tris buffered): 67.60 fold | solubility, fold increase over no excipient ([5]; excipient Cremophor_EL, pH 3 (Low), phosphate buffered): 94.00 fold | solubility, fold increase over no excipient ([5]; excipient Cremophor_EL, pH 7 (Med), phosphate buffered): 138.82 fold | solubility, fold increase over no excipient ([5]; excipient Cremophor_EL, pH 9 (High), Tris buffered): 89.92 fold | solubility, fold increase over no excipient ([5]; excipient DMA, pH 3 (Low), phosphate buffered): 6.67 fold | solubility, fold increase over no excipient ([5]; excipient DMA, pH 7 (Med), phosphate buffered): 8.41 fold | solubility, fold increase over no excipient ([5]; excipient DMA, pH 9 (High), Tris buffered): 7.07 fold | solubility, fold increase over no excipient ([5]; excipient DMSO, pH 3 (Low), phosphate buffered): 1.79 fold | solubility, fold increase over no excipient ([5]; excipient DMSO, pH 7 (Med), phosphate buffered): 1.96 fold | solubility, fold increase over no excipient ([5]; excipient DMSO, pH 9 (High), Tris buffered): 1.84 fold | solubility, fold increase over no excipient ([5]; excipient Dimethyl_isosorbide, pH 3 (Low), phosphate buffered): 4.14 fold | solubility, fold increase over no excipient ([5]; excipient Dimethyl_isosorbide, pH 7 (Med), phosphate buffered): 5.78 fold | solubility, fold increase over no excipient ([5]; excipient Dimethyl_isosorbide, pH 9 (High), Tris buffered): 5.01 fold | solubility, fold increase over no excipient ([5]; excipient Labrasol, pH 3 (Low), phosphate buffered): 54.03 fold | solubility, fold increase over no excipient ([5]; excipient Labrasol, pH 7 (Med), phosphate buffered): 85.96 fold | solubility, fold increase over no excipient ([5]; excipient Labrasol, pH 9 (High), Tris buffered): 79.23 fold | solubility, fold increase over no excipient ([5]; excipient NMP, pH 3 (Low), phosphate buffered): 6.39 fold | solubility, fold increase over no excipient ([5]; excipient NMP, pH 7 (Med), phosphate buffered): 9.02 fold | solubility, fold increase over no excipient ([5]; excipient NMP, pH 9 (High), Tris buffered): 7.96 fold | solubility, fold increase over no excipient ([5]; excipient PEG400, pH 3 (Low), phosphate buffered): 3.22 fold | solubility, fold increase over no excipient ([5]; excipient PEG400, pH 7 (Med), phosphate buffered): 4.32 fold | solubility, fold increase over no excipient ([5]; excipient PEG400, pH 9 (High), Tris buffered): 3.55 fold | solubility, fold increase over no excipient ([5]; excipient PVP, pH 3 (Low), phosphate buffered): 2.21 fold | solubility, fold increase over no excipient ([5]; excipient PVP, pH 7 (Med), phosphate buffered): 3.98 fold | solubility, fold increase over no excipient ([5]; excipient PVP, pH 9 (High), Tris buffered): 2.73 fold | solubility, fold increase over no excipient ([5]; excipient Propylene_glycol, pH 3 (Low), phosphate buffered): 5.63 fold | solubility, fold increase over no excipient ([5]; excipient Propylene_glycol, pH 7 (Med), phosphate buffered): 7.89 fold | solubility, fold increase over no excipient ([5]; excipient Propylene_glycol, pH 9 (High), Tris buffered): 5.90 fold | solubility, fold increase over no excipient ([5]; excipient Solutol_HS_15, pH 3 (Low), phosphate buffered): 3.82 fold | solubility, fold increase over no excipient ([5]; excipient Solutol_HS_15, pH 7 (Med), phosphate buffered): 5.00 fold | solubility, fold increase over no excipient ([5]; excipient Solutol_HS_15, pH 9 (High), Tris buffered): 4.47 fold | solubility, fold increase over no excipient ([5]; excipient Tweens, pH 3 (Low), phosphate buffered): 194.37 fold | solubility, fold increase over no excipient ([5]; excipient Tweens, pH 7 (Med), phosphate buffered): 272.98 fold | solubility, fold increase over no excipient ([5]; excipient Tweens, pH 9 (High), Tris buffered): 231.06 fold | EC50 (MSCs [4]; 1 hr exposure, read-out: EC50 1 hr.): 0.194 nM | EC50 (MSCs [4]; 4 hr exposure, read-out: EC50 4 hr.): 0.0422 nM | EC50 (MSCs [4]; 24 hr exposure, read-out: EC50 24 hr.): 0.0676 nM | EC50 (MSCs [4]; 72 hr exposure, read-out: EC50 72 hr): 0.0042 nM
SMILES: CCC(=O)O[C@]1(C(=O)SCF)[C@H](C)C[C@H]2[C@@H]3C[C@H](F)C4=CC(=O)C=C[C@]4(C)[C@@]3(F)[C@@H](O)C[C@@]21C [Fluticasone propionate]
EC50 ([1]; MSCs, 6 days exposure, read-out: EC50 6 days): 0.0065 nM | EC50 [1, 6]: 0.0065 nM | CC50 (L929): > 1000 nM | ALP RNA expression (osteogenic differentiation of MSCs) (MSCs [3]): upregulated osteogenic differentiation of MSCs significantly | Max Osteogenic Response (MSCs [4]): 48 to 72 h

EC50 (MSCs [4]; [10]): 0.464 nM | EC50 (MSCs [4]; [12]): 0.146 nM
SMILES: CC(=O)[C@@]1(O)CC[C@H]2[C@@H]3C[C@H](C)C4=CC(=O)C=C[C@]4(C)[C@@]3(F)[C@@H](O)C[C@@]21C [Fluorometholone]
EC50 [1, 7]: 0.319 nM | EC50 [1, 8]: 0.319 nM | CC50 [2]: > 5000 nM | Max Osteogenic Response (MSCs [4]): 144 h
